We go through 14 compounds from patent publication US11230540B2, “Substituted triazole derivatives and uses thereof” (Bayer Pharma Aktiengesellschaft, priority 2017, dated 2022).

One test addresses T1, human V2 receptor (Homo sapiens, UniProt P30518).
T1 construct: expressed in transfected cells; host or cells: CHO K1 (Chinese hamster ovary) expressing firefly luciferase under a CRE-responsive promoter
In words: Cellular in vitro assay for vasopressin receptor activity, V2 receptor cell line (CRE-luciferase). It counts as cell-based. The settings on record: CHO cell line transfected with human V2 receptor; [Arg8]-vasopressin at EC50 concentration; read-out: IC50 hV2. How it is done: (§1) B-1. Cellular In Vitro Assay for Determining Vasopressin Receptor Activity
(§2) The identification of agonists and antagonists of the V1a and V2 vasopressin receptors from humans, rats and dogs as well as the quantification of the activity of the compounds of the invention is carried out using recombinant cell lines. These cell lines originally derive from a hamster's ovary epithelial cell (Chinese Hamster Ovary, CHO K1, ATCC: American Type Culture Collection, Manassas, Va. 20108, USA). The test cell lines constitutively express the human, rat or dog V1a or V2 receptors. In case of the […] V1a receptors, cells are also stably transfected with a modified form of the calcium-sensitive photoproteins aequorin (human and rat V1a) or obelin (dog V1a), which, after reconstitution with the cofactor coelenterazine, emit light when there are increases in free calcium concentrations [Rizzuto R, Simpson A W, Brini M, Pozzan T, Nature 358, 325-327 (1992); Illarionov B A, Bondar V S, Illarionova V A, Vysotski E S, Gene 153 (2), 273-274 (1995)]. The resulting vasopressin receptor cells react to stimulation of the recombinantly expressed V1a receptors by intracellular release of calcium ions, which can be quantified by the resulting photoprotein luminescence. The Gs-coupled V2 receptors are stably transfected into cell lines expressing the gene for firefly luciferase under control of a CRE-responsible promoter. Activation of V2 receptors induces the activation of the CRE-responsive promoter via cAMP increase, thereby inducing the expression of firefly luciferase. The light emitted by photoproteins of V1a cell lines as well as the light emitted by firefly luciferase of V2 cell lines corresponds to the activation or inhibition of the respective vasopressin receptor. The bioluminescence of the cell lines is detected using a suitable luminometer [Milligan G, Marshall F, Rees S, Trends in Pharmacological Sciences 17, 235-237 (1996)].
Vasopressin V2 Receptor Cell Lines:
On the day before the assay, the cells are plated out in culture medium (DMEM/F12, 2% FCS, 2 mM glutamine, 10 mM HEPES) in 384-well microtiter plates and kept in a cell incubator (96% humidity, 5% v/v CO2, 37° C.). On the day of the assay, test compounds in various concentrations and the agonist [Arg^8]-vasopressin at EC50 concentration are added together to the wells, and plates are incubated for 3 hours in a cell incubator. Upon addition of the cell lysis reagent Triton™ and the substrate luciferin, luminescence of firefly luciferase is measured in a luminometer.
(§3) Table 1A below lists individual IC50 values for the compounds of the invention (including racemic mixtures as well as separated enantiomers) that were obtained from cell lines transfected with the human V1a or V2 receptor: […]

The target in a further test is T2, human V1a receptor (Homo sapiens, UniProt P37288).
T2 construct: expressed in transfected cells; host or cells: CHO K1 (Chinese hamster ovary), also stably transfected with a modified aequorin
T2 sequence (P37288 whole entry): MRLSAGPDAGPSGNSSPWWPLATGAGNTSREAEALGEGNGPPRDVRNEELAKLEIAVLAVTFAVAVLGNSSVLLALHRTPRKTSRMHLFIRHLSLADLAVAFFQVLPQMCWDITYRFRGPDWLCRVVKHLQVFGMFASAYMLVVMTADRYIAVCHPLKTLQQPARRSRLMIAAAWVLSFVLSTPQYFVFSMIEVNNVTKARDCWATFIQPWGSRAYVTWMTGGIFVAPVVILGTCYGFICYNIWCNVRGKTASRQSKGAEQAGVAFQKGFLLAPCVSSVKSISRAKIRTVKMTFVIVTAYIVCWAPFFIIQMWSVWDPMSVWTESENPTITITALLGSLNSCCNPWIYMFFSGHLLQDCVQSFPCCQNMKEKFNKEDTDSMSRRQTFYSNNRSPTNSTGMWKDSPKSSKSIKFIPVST
In words: Cellular in vitro assay for vasopressin receptor activity, V1a receptor cell line (aequorin luminescence). It counts as cell-based. The following applies: for IC50: CHO cell line transfected with human V1a receptor, [Arg8]-vasopressin at EC50 concentration, read-out: IC50 hV1a; for ratio IC50 hV2/hV1a: selectivity ratio of the IC50 values hV2/hV1a. How it is done:
as §1, §2
Vasopressin V1a Receptor Cell Lines:
On the day before the assay, the cells are plated out in culture medium (DMEM/F12, 2% FCS, 2 mM glutamine, 10 mM HEPES, 5 μg/ml coelenterazine) in 384-well microtiter plates and kept in a cell incubator (96% humidity, 5% v/v CO2, 37° C.). On the day of the assay, test compounds in various concentrations are placed for 10 minutes in the wells of the microtiter plate before the agonist [Arg^8]-vasopressin at EC50 concentration is added. The resulting light signal is measured immediately in a luminometer.
as §3

Where a name gives a salt, the structure may show the parent alone.

T1 sequence (P30518 whole entry): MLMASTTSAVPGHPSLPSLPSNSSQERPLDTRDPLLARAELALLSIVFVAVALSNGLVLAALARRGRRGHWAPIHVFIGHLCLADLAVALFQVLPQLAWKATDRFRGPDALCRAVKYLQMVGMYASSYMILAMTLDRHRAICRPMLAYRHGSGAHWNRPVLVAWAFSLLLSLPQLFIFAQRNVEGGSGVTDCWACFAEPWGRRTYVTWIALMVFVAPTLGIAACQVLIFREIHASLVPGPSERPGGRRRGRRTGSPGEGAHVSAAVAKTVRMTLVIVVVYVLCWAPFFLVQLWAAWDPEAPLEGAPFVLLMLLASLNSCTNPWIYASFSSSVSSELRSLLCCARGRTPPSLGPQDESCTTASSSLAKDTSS

As to `O=CN1CCC(NC(=O)c2nc(Cn3nc(-c4ccc(Cl)cc4)n(C[C@H](O)C(F)(F)F)c3=O)nn2-c2cnccc2Cl)C1` (mixture of isomers) [Example 13, 3-({3-(4-Chlorophenyl)-5-oxo-4-[(2S)-3,3,3-trifluoro-2-hydroxypropyl]-4,5-dihydro-1H-1,2,4-triazol-1-yl}methyl)-1-(4-chloropyridin-3-yl)-N-[1-formylpyrrolidin-3-yl]-1H-1,2,4-triazole-5-carboxamide], the IC50 was determined as 285 nM on human V2 receptor and 1.5 nM on human V1a receptor. In addition, the “ratio IC50 hV2/hV1a” value at human V1a receptor worked out at 190.0.
On to `O=CN1CCC(NC(=O)c2nc(Cn3nc(-c4ccc(Cl)cc4)n(C[C@H](O)C(F)(F)F)c3=O)nn2-c2cccnc2Cl)C1` (mixture of isomers) [Example 14, 3-({3-(4-Chlorophenyl)-5-oxo-4-[(2S)-3,3,3-trifluoro-2-hydroxypropyl]-4,5-dihydro-1H-1,2,4-triazol-1-yl}methyl)-1-(2-chloropyridin-3-yl)-N-[1-formylpyrrolidin-3-yl]-1H-1,2,4-triazole-5-carboxamide], for which, on human V2 receptor, the IC50 was determined as 315 nM. For the same compound, on human V1a receptor, the IC50 was determined as 108 nM and the “ratio IC50 hV2/hV1a” value is 2.9.
Turning to `CC1(O)CCN(C(=O)c2nc(Cn3nc(-c4ccc(Cl)cc4)n(C[C@H](O)C(F)(F)F)c3=O)nn2CCC(F)(F)F)C1` (mixture of isomers) [Example 22, 5-(4-Chlorophenyl)-2-{[5-{[3-hydroxy-3-methylpyrrolidin-1-yl]carbonyl}-1-(3,3,3-trifluoropropyl)-1H-1,2,4-triazol-3-yl]methyl}-4-[(2S)-3,3,3-trifluoro-2-hydroxypropyl]-2,4-dihydro-3H-1,2,4-triazol-3-one], at human V2 receptor, the IC50 is 435 nM. Besides, on human V1a receptor, the IC50 was found to be 290 nM and the “ratio IC50 hV2/hV1a” value amounted to 1.5.
As for `O=C(c1nc(Cn2nc(-c3ccc(Cl)cc3)n(C[C@H](O)C(F)(F)F)c2=O)nn1CCC(F)(F)F)N1CCNC(C(F)(F)F)C1` (mixture of isomers) [Example 25, 5-(4-Chlorophenyl)-4-[(2S)-3,3,3-trifluoro-2-hydroxypropyl]-2-{[5-{[3-(trifluoromethyl)piperazin-1-yl]carbonyl}-1-(3,3,3-trifluoropropyl)-1H-1,2,4-triazol-3-yl]methyl}-2,4-dihydro-3H-1,2,4-triazol-3-one], the IC50 on human V2 receptor was 170 nM. At human V1a receptor, the IC50 amounted to 35 nM and the “ratio IC50 hV2/hV1a” value turned out to be 4.9.
`NC(CNC(=O)c1nc(Cn2nc(-c3ccc(Cl)cc3)n(C[C@H](O)C(F)(F)F)c2=O)nn1-c1ncccc1C(F)(F)F)C(F)(F)F` (mixture of isomers) [Example 51, N-(2-Amino-3,3,3-trifluoropropyl)-3-({3-(4-chlorophenyl)-5-oxo-4-[(2S)-3,3,3-trifluoro-2-hydroxypropyl]-4,5-dihydro-1H-1,2,4-triazol-1-yl}methyl)-1-[3-(trifluoromethyl)pyridin-2-yl]-1H1,2,4-triazole-5-carboxamide hydrochloride]: the IC50 at human V2 receptor was found to be 1190 nM. Moreover, at human V1a receptor, the IC50 is 135 nM and the “ratio IC50 hV2/hV1a” value came out at 8.8.
As to `CC1(O)CCN(C(=O)c2nc(Cn3nc(-c4ccc(Cl)cc4)n(C[C@H](O)C(F)(F)F)c3=O)nn2CCC(F)(F)F)C1` (single isomer, unassigned) [Example 23], the IC50 at human V2 receptor turned out to be 245 nM; on human V1a receptor it was 285 nM. The “ratio IC50 hV2/hV1a” value on human V1a receptor is on record as 0.9.
The corresponding values for `CC1(O)CCN(C(=O)c2nc(Cn3nc(-c4ccc(Cl)cc4)n(C[C@H](O)C(F)(F)F)c3=O)nn2CCC(F)(F)F)C1` (single isomer, unassigned) [Example 24] are 300 nM, 185 nM and 1.6.
As to `CC(C)(O)CNC(=O)c1nc(Cn2nc(-c3ccc(Cl)cc3)n(C[C@H](O)C(F)(F)F)c2=O)nn1-c1ncccc1OC(F)(F)F` [Example 1, 3-({3-(4-Chlorophenyl)-5-oxo-4-[(2S)-3,3,3-trifluoro-2-hydroxypropyl]-4,5-dihydro-1H-1,2,4-triazol-1-yl}methyl)-N-(2-hydroxy-2-methylpropyl)-1-[3-(trifluoromethoxy)pyridin-2-yl]-1H1,2,4-triazole-5-carboxamide], the results for the IC50 at human V2 receptor and on human V1a receptor were 82 nM and 0.66 nM, respectively. Besides, the “ratio IC50 hV2/hV1a” value at human V1a receptor is reported as 124.2.
`CC(C)(O)CNC(=O)c1nc(Cn2nc(-c3ccc(Cl)cc3)n(C[C@H](O)C(F)(F)F)c2=O)nn1-c1cnccc1Cl` [Example 2, 3-({3-(4-Chlorophenyl)-5-oxo-4-[(2S)-3,3,3-trifluoro-2-hydroxypropyl]-4,5-dihydro-1H-1,2,4-triazol-1-yl}methyl)-1-(4-chloropyridin-3-yl)-N-(2-hydroxy-2-methylpropyl)-1H-1,2,4-triazole-5-carboxamide]: the IC50 was 23 nM at human V2 receptor and 0.45 nM on human V1a receptor. The “ratio IC50 hV2/hV1a” value on human V1a receptor was found to be 51.7.
As to `CC(C)(N)CNC(=O)c1nc(Cn2nc(-c3ccc(Cl)cc3)n(C[C@H](O)C(F)(F)F)c2=O)nn1-c1ncccc1OC(F)(F)F` [Example 3, N-(2-Amino-2-methylpropyl)-3-({3-(4-chlorophenyl)-5-oxo-4-[(2S)-3,3,3-trifluoro-2-hydroxypropyl]-4,5-dihydro-1H-1,2,4-triazol-1-yl}methyl)-1-[3-(trifluoromethoxy)pyridin-2-yl]-1H-1,2,4-triazole-5-carboxamide], the results for the IC50 at human V2 receptor and at human V1a receptor were 470 nM and 0.83 nM, respectively. In addition, at human V1a receptor, the “ratio IC50 hV2/hV1a” value is reported as 569.7.
Consider `CC(C)(N)CNC(=O)c1nc(Cn2nc(-c3ccc(Cl)cc3)n(C[C@H](O)C(F)(F)F)c2=O)nn1-c1cnccc1Cl` [Example 4, N-(2-Amino-2-methylpropyl)-3-({3-(4-chlorophenyl)-5-oxo-4-[(2S)-3,3,3-trifluoro-2-hydroxypropyl]-4,5-dihydro-1H-1,2,4-triazol-1-yl}methyl)-1-(4-chloropyridin-3-yl)-1H-1,2,4-triazole-5-carboxamide], for which the IC50 worked out at 410 nM at human V2 receptor and 0.49 nM at human V1a receptor. For the same compound, the “ratio IC50 hV2/hV1a” value on human V1a receptor came out at 845.4.
The corresponding values for `CC1(O)CCN(C(=O)c2nc(Cn3nc(-c4ccc(Cl)cc4)n(C[C@H](O)C(F)(F)F)c3=O)nn2-c2ncccc2OC(F)(F)F)C1` (stereo partly drawn) [Example 5, 5-(4-Chlorophenyl)-2-[(5-[{3-hydroxy-3-methylpyrrolidin-1-yl]carbonyl}-1-[3-(trifluoromethoxy)pyridin-2-yl]-1H-1,2,4-triazol-3-yl)methyl]-4[(2S)-3,3,3-trifluoro-2-hydroxypropyl]-2,4-dihydro-3H-1,2,4-triazol-3-one] are 1130 nM, 10.3 nM and 108.7.
As to `CC1(O)CCN(C(=O)c2nc(Cn3nc(-c4ccc(Cl)cc4)n(C[C@H](O)C(F)(F)F)c3=O)nn2-c2cnccc2Cl)C1` (stereo partly drawn) [Example 6], the IC50 on human V2 receptor is 360 nM. Moreover, at human V1a receptor, the IC50 came out at 2.45 nM and the “ratio IC50 hV2/hV1a” value is 146.9.
On to `CC1(CNC(=O)c2nc(Cn3nc(-c4ccc(Cl)cc4)n(C[C@H](O)C(F)(F)F)c3=O)nn2-c2ncccc2OC(F)(F)F)COC1` [Example 7, 3-({3-(4-Chlorophenyl)-5-oxo-4-[(2S)-3,3,3-trifluoro-2-hydroxypropyl]-4,5-dihydro-1H-1,2,4-triazol-1-yl}methyl)-N-[(3-methyloxetan-3-yl)methyl]-1-[3-(trifluoromethoxy)pyridin-2-yl]-1H1,2,4-triazole-5-carboxamide], for which, on human V2 receptor, the IC50 came out at 335 nM. Also, at human V1a receptor, the IC50 was 2.55 nM and the “ratio IC50 hV2/hV1a” value was 131.4.

As a reminder, the IC50 is the midpoint of a concentration-inhibition curve.
